What all share (assay): biochemical
Holding throughout (design): KINOMEscan competition binding, DNA-tagged kinase against immobilised ligand, qPCR read-out

One test addresses PKNB(M.tuberculosis) (Mycobacterium tuberculosis, UniProt P9WI81). As to conditions: read-out: Percent Control.
For a further test, the target named is T1, PFPK5(P.falciparum) (Plasmodium falciparum, UniProt P61075).
T1 construct: gene CRK2
As to conditions: read-out: Percent Control.

In another test the target is BMPR2 (Homo sapiens, UniProt Q13873). As to conditions: read-out: Percent Control. On the procedure:
(§1) The KINOMEscan^TM kinase assays[65] were performed by Eurofins DiscoverX Corporation. For each kinase, the assay relies on the ability of the tested compound to compete against an immobilised ligand for binding to the DNA-tagged kinase. RT-qPCR is then used to measure the quantity of kinase molecules bound to the immobilised ligand, which is decreased if the tested compound competed with the kinase-ligand interaction. An 11-point 3-fold serial dilution of IDX compound was prepared in 100% DMSO at 100× final test concentration and subsequently diluted to 1× in the assay. […]

A further test has as its target EPHA5 (Homo sapiens, UniProt P54756). Particulars: read-out: Percent Control. As for the experimental part:
as §1

The target of a further test is FLT4 (Homo sapiens, UniProt P35916). Particulars: read-out: Percent Control. As for the experimental part: as §1
The target in the next test is MAP3K14 (Homo sapiens, UniProt Q99558). As to conditions: read-out: Percent Control. On the procedure: as §1
Sequence of MAP3K14 (Q99558 whole entry): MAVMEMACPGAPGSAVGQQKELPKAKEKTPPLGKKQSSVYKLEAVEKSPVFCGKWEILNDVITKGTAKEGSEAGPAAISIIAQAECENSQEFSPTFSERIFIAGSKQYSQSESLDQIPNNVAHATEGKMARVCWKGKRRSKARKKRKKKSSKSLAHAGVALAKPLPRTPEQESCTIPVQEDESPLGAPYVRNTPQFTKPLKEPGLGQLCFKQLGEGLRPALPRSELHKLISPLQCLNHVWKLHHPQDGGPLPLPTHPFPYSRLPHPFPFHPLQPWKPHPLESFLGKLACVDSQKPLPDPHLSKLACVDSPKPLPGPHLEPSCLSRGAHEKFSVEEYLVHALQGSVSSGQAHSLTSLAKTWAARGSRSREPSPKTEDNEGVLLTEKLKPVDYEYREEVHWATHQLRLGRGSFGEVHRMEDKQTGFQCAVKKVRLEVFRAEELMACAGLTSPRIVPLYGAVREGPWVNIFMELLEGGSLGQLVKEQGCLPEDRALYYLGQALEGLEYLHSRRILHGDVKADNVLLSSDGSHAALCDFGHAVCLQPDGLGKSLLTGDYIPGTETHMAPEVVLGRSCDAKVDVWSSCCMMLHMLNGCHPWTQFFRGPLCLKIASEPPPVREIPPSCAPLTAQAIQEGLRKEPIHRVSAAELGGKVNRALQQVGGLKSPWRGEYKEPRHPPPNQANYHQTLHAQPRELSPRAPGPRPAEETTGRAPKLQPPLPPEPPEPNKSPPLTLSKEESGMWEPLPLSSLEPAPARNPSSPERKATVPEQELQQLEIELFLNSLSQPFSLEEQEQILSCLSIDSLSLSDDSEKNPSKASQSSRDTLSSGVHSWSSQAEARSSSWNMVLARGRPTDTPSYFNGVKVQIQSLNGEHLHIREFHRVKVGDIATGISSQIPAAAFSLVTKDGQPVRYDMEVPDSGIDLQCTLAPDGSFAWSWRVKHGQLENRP
The target of the next test is MARK2 (Homo sapiens, UniProt Q7KZI7). Particulars: read-out: Percent Control. As for the experimental part: as §1
For the next test, the target named is MERTK (Homo sapiens, UniProt Q12866). As to conditions: read-out: Percent Control. As for the experimental part: as §1
Sequence of MERTK (Q12866 whole entry): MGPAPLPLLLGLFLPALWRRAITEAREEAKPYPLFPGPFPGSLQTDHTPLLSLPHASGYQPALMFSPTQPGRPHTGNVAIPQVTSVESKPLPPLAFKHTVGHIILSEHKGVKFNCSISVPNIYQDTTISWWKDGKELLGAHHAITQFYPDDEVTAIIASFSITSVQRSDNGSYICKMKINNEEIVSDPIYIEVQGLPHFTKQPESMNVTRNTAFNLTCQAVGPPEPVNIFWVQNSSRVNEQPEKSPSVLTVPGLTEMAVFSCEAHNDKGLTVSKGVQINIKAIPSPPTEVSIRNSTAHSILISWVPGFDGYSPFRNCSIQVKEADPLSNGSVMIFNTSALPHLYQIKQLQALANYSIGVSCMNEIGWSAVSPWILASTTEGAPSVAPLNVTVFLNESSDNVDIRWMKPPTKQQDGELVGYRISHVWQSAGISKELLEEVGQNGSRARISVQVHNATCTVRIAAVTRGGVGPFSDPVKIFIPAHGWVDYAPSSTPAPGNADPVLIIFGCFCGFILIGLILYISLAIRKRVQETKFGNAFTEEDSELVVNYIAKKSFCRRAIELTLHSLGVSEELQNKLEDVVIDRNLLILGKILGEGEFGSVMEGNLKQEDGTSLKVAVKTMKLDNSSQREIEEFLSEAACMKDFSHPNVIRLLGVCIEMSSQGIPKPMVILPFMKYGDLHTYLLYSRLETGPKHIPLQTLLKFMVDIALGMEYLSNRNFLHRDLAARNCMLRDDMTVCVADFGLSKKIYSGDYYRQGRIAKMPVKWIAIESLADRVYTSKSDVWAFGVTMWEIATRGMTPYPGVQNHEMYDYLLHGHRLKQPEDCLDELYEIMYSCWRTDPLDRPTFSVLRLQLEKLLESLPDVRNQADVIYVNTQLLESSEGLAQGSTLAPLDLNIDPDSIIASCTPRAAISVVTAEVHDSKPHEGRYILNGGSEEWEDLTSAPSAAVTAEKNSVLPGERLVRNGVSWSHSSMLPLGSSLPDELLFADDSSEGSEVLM
A further test addresses NEK1 (Homo sapiens, UniProt Q96PY6). Particulars: read-out: Percent Control. On the procedure:
as §1

A further test has as its target NEK4 (Homo sapiens, UniProt P51957). As to conditions: read-out: Percent Control. As for the experimental part:
as §1

The next test has as its target RIOK1 (Homo sapiens, UniProt Q9BRS2). Particulars: read-out: Percent Control. As for the experimental part:
as §1

A further test deals with TGFBR1 (Homo sapiens, UniProt P36897). As to conditions: read-out: Percent Control. As for the experimental part:
as §1

Another test has as its target TSSK1B (Homo sapiens, UniProt Q9BXA7). Particulars: read-out: Percent Control. As for the experimental part:
as §1

The target of another test is WNK4 (Homo sapiens, UniProt Q96J92). Particulars: read-out: Percent Control. As for the experimental part: as §1
Sequence of WNK4 (Q96J92 whole entry): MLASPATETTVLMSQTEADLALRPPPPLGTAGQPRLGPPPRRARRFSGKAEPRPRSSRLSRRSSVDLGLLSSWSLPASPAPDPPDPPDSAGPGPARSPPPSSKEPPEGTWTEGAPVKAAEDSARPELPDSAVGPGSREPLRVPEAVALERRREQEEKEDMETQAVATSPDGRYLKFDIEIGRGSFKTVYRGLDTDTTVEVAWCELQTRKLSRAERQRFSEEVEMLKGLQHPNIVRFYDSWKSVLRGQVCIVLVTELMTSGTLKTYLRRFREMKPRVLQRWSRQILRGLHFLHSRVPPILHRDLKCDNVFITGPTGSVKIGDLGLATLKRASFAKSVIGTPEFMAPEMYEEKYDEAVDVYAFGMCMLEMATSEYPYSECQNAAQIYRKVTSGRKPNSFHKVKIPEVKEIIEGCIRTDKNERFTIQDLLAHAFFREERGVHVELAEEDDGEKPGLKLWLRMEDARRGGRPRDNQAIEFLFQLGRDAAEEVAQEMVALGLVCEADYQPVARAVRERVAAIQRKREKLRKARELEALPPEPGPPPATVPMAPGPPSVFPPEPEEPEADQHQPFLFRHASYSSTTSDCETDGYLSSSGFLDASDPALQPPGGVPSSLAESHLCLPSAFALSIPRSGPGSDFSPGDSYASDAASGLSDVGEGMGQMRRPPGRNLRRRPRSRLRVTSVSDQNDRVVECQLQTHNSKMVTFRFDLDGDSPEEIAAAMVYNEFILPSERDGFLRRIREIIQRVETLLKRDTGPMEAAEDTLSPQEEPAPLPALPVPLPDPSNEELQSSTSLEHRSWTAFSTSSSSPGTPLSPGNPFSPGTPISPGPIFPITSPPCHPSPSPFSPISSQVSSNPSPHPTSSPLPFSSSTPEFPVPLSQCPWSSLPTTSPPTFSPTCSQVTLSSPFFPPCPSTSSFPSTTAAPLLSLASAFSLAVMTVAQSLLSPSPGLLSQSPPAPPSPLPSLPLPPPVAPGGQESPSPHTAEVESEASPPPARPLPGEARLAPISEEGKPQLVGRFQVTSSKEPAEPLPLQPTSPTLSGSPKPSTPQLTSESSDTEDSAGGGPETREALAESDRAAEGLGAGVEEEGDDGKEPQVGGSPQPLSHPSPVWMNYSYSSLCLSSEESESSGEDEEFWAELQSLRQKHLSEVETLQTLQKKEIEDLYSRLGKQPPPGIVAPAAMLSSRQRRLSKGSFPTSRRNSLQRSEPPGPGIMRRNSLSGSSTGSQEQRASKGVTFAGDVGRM
The target in the next test is T2, DRAK1 (Homo sapiens, UniProt Q9UEE5).
T2 construct: gene STK17A
T2 sequence (Q9UEE5 1-414): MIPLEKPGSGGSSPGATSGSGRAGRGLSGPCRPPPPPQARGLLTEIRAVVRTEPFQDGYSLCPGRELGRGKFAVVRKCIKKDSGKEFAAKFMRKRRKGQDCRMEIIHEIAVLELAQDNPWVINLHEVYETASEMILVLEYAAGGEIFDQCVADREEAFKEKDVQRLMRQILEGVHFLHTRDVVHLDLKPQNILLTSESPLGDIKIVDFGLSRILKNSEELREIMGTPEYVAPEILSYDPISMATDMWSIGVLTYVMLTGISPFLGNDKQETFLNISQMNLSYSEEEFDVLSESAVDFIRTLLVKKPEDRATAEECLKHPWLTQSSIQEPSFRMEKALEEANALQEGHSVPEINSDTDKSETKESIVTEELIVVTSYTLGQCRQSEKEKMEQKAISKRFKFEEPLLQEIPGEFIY

In a further test the target is PIM2 (Homo sapiens, UniProt Q9P1W9).
Sequence of PIM2 (Q9P1W9 whole entry): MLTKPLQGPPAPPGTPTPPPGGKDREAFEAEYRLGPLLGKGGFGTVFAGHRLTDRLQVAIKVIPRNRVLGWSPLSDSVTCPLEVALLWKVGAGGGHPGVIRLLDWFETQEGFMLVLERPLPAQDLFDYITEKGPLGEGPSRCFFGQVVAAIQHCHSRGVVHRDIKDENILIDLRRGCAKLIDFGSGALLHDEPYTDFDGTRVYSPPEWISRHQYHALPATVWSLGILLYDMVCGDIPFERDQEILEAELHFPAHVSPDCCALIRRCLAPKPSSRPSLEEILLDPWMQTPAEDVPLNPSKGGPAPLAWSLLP

We go through 1 molecule from publication PMC10507085, “Pharmacological inhibition of TBK1/IKKε blunts immunopathology in a murine model of SARS-CoV-2 infection” (Nature Communications, 2023).

Sequence of TGFBR1 (P36897 whole entry): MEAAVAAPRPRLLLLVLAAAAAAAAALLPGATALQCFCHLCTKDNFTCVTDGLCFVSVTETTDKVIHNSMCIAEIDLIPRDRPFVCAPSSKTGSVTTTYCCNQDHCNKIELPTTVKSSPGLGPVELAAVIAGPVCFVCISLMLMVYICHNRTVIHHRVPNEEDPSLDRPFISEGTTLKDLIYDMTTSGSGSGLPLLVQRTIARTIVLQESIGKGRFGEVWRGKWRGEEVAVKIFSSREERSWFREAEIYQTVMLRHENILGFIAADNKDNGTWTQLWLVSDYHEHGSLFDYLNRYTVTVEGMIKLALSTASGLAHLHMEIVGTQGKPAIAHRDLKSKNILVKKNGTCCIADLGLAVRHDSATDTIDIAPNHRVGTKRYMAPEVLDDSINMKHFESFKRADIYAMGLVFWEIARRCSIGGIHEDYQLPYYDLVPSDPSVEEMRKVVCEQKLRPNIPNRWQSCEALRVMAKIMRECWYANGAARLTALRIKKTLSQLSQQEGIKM
Sequence of NEK4 (P51957 whole entry): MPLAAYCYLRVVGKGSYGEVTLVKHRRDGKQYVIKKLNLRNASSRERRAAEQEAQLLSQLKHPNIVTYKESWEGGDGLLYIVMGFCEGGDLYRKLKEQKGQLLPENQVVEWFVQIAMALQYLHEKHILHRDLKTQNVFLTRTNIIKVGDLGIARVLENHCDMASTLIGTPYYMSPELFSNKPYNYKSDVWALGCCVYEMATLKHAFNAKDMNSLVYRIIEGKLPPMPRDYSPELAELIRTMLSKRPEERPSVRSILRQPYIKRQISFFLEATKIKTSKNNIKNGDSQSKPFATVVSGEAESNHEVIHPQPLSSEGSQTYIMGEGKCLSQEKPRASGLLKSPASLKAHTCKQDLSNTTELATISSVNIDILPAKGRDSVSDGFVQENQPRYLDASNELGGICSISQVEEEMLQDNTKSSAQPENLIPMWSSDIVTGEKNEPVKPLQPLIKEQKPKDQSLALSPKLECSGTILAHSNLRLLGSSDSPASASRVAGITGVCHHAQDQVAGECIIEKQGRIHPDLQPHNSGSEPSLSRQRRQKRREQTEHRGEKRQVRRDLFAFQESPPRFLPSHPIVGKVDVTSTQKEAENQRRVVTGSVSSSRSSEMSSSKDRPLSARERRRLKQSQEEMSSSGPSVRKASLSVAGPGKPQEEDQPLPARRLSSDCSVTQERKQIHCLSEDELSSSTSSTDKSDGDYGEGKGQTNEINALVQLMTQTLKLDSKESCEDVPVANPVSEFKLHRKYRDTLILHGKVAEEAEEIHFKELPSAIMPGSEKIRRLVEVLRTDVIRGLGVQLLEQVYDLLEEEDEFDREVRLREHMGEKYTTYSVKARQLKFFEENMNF

For `Oc1ccc(C2=Cc3ccc(O)cc3OC2)cc1` [compound 1, idronoxil], the remaining binding at 10 µM on PKNB(M.tuberculosis) was found to be 76%; at PFPK5(P.falciparum), 95%; on BMPR2, 99%; at EPHA5, 97%; on FLT4, 100%; at MAP3K14, 60%. The remaining binding at 10 µM was found to be 84% on MARK2; 97% on MERTK; 71% at NEK1; 98% at NEK4; 98% at RIOK1; 78% on TGFBR1. Further, the remaining binding at 10 µM at TSSK1B stood at 87%; at WNK4, 95%. In addition, the Kd at DRAK1 was 1200 nM; on PIM2, 2300 nM.
